Results: a melting point compilation (Tetko et al.; mined from patent text by program, amines drawn as free bases though some values may be those of a salt)

Compared with `N#CC1CN1C(=O)Oc1ccc([N+](=O)[O-])cc1` (stereo not given), `COc1ccc(C2C(C(=O)O)C2(C)C)cc1` (stereo not given) is higher in melting point: 100 to 104 °C for the first, 115 °C for the second.

First: CCCn1c(=O)[nH]c2cc(Cl)cc(Cl)c2c1=O
Second: CCCn1c(=O)c2[nH]c(-c3ccc(OCC(=O)O)cc3)nc2n(CCC)c1=O
The melting point of the first is higher: 223 to 234 °C for the first, 214 to 216 °C for the second.

First: Cn1cc(C(=O)NCc2ccc(Cl)cc2)c(=O)c2cc(CN3CCOCC3)cc(C#CCO)c21
Second: Clc1ccc(-c2cc(C3CCN(Cc4cccc(Cl)c4)CC3)n[nH]2)cc1
The melting point of the first is higher: 180 to 183 °C for the first, 134 to 136 °C for the second.

First: Cc1c(F)cccc1NC(=O)c1ccccc1CN1C(=O)C2(COc3cc4c(cc32)CCO4)c2ccccc21 (stereo not given)
Second: O=C(Nc1nnc(CC2CC2)o1)C1c2ccccc2Oc2ccccc21
The melting point of the first is higher: greater than 230 °C for the first, 140 to 141 °C for the second.

Compared with `CC1(C)Oc2ccc(Br)cc2C(Oc2ccnc(O)c2)C1(C)O` (stereo not given), `Cn1c2ccc(Br)cc2c2cc(Br)cc([N+](=O)[O-])c21` is lower in melting point: 251 to 252 °C for the first, 221 °C for the second.

First: CC(=O)NCCCC(=O)c1ccc(Cl)cc1C(CC(=O)O)c1ccccc1 (stereo not given)
Second: CC(C)(CNC(=O)c1ccccc1-c1ccccc1C(=O)O)SN=O
The melting point of the first is lower: 114 to 116 °C for the first, 121 to 123 °C for the second.

Compared with `CNC1=NN(c2ccc(Cl)c(Cl)c2)CC1`, `COc1ccc(C(CC(=O)O)N2C(=O)c3cc(Cl)c(Cl)cc3C2=O)cc1` (stereo not given) is higher in melting point: 68 to 70 °C for the first, 182 to 185 °C for the second.

First: O=C1C[C@@H](COS(=O)(=O)c2ccccc2)N1
Second: NS(=O)(=O)c1ccccc1C1CO1 (stereo not given)
The melting point of the first is lower: 102 to 105 °C for the first, 136 to 139 °C for the second.

Compared with `CC(=O)Nc1c(OC(C)=O)cc(C(=O)O)cc1[N+](=O)[O-]`, `COC(=O)C(=CNc1cc(-c2cccc(Cl)c2)sc1C(=O)O)SC` is lower in melting point: 196 to 201 °C for the first, 84 to 86 °C for the second.

First: N=C(NO)C1C=Cc2ccccc2N1C(=O)c1ccccc1 (stereo not given)
Second: N#Cc1ccc(C(=O)c2ccccc2)s1
The melting point of the first is higher: 176 to 178 °C for the first, 85 to 89 °C for the second.

First: CC(=O)c1ccc2c(c1)CCCN2C(=O)OC(C)(C)C
Second: CC(C)(C)ON=C1CCC(NC(=O)N2CCn3c(Cl)c(-c4cccc(F)c4)c(C(N)=O)c3C2)CC1 (stereo not given)
The melting point of the first is lower: 80 to 82 °C for the first, 195 to 198 °C for the second.

First: N#Cc1cc2c(c(C(=O)O)c1)NCCS2
Second: Cc1cc(C)n(C)c1C(=O)C(C#N)C(=O)Nc1ccccc1 (stereo not given)
The melting point of the first is higher: 241 to 242 °C for the first, 106 to 107 °C for the second.

First: CCCCC1(CCCC)CCc2c(OCc3ccc4ccccc4n3)ccc(C)c2C1O (stereo not given)
Second: CCCCCCCNC(=O)Nc1ccc(N2CCCC2)cc1C(=O)NCC1CCN(C(c2ccccc2)c2ccccc2)CC1
The melting point of the first is lower: 149 to 151 °C for the first, 182 to 184 °C for the second.

First: COc1cccc(CNc2ncnc3c2sc2nc(N4CCCC4)c4c(c23)CC(C)(C)CC4)c1OC
Second: COc1ccccc1N1CCN(Cc2c[nH]c3ccccc23)CC1
The melting point of the first is higher: 194 to 195 °C for the first, 188 to 190 °C for the second.

Compared with `Cc1nnc2n1-c1ccc(C#CCn3cnc4ccccc43)cc1C(c1ccccc1Cl)=NC2`, `O=C(Cc1cccc(Cl)c1)c1ccn(S(=O)(=O)c2ccccc2)c1` is lower in melting point: 165 to 168 °C for the first, 106 to 108 °C for the second.

First: CC12CCC(C1)C(C)(C)C2(S)CCN (stereo not given)
Second: CCOC(=O)CC(C)c1ccc(C2COc3c(C)c(C)c(NC(=O)CC(C)(C)C)c(C)c32)cc1 (stereo not given)
The melting point of the first is lower: 42 to 43 °C for the first, 100 to 101 °C for the second.

First: COC(=O)C=Cc1c(C(=O)OC)c2c(n1C)C(=O)C=C(OC)C2=O
Second: Nc1nc2[nH]c(CCC#Cc3ccc(C(=O)N[C@@H](CCC(=O)O)C(=O)O)cn3)cc2c(=O)[nH]1
The melting point of the first is higher: 235 to 236 °C for the first, 178 to 179 °C for the second.

`CC(C)(Cl)c1ccc(-c2ccc(C(C)(C)Cl)cc2)cc1` and `O=C(C=CCN1CCC(O)(c2ccc(Cl)cc2)CC1)c1ccc(F)cc1` cannot be ordered by melting point: 96 to 98 °C for the first, 97 to 97.5 °C for the second.

Compared with `Cc1cc2n(c1)CN(CCCO)c1ccccc1-2`, `Cc1cccc(C(Oc2ccc3oc(CCCO)cc3c2)c2cocn2)c1` (stereo not given) is higher in melting point: 77 to 78 °C for the first, 101 to 102 °C for the second.

First: N#CC1(c2nnn[nH]2)CCCC1
Second: COc1cccc(C2CNC(=O)C2c2cn3c4c(cccc24)CCC3)c1 (stereo not given)
The melting point of the first is lower: 92 to 94 °C for the first, 191 to 194 °C for the second.

Compared with `Nc1cc(N2CCNCC2)ccc1S(=O)(=O)c1ccc(F)cc1`, `O=C(Nc1cccc(S(=O)(=O)N2CCOCC2)c1)c1cnn2c(C(F)(F)F)cc(-c3ccc(Cl)c(Cl)c3)nc12` is higher in melting point: 144 to 146 °C for the first, 239 °C for the second.

Compared with `C=Cc1ccc(-c2ccc3c4ccc5c6c(ccc(c7cccc2c73)c64)C(=O)N(c2c(C(C)C)cccc2C(C)C)C5=O)cc1`, `C=CC(=O)OCCCCCCCCCCCCOc1ccc(-c2cccc(F)c2F)cc1` is lower in melting point: greater than 300 °C for the first, 59.7 to 60.7 °C for the second.

First: C#CC(C)NCC(O)COc1ccccc1C=Cc1nnc(C)s1 (stereo not given)
Second: O=[N+]([O-])c1ccccc1/C=C/c1ncon1
The melting point of the first is higher: 143 to 145 °C for the first, 128 °C for the second.

First: CCC(CC)(CC)NC(=S)Nc1cc(Cl)cc(Cl)c1
Second: Cc1nc(=O)[nH]c2ccc(N(C)C)cc12
The melting point of the first is lower: 152 to 154 °C for the first, 278 to 281 °C for the second.

First: FC(F)(F)c1ccc2nc(-c3csc(Nc4c(Cl)cccc4Cl)n3)[nH]c2c1
Second: NC(=O)NN=C1CC(O)C(C=Cc2ccccc2)=C1CCCCCCC(=O)O (stereo not given)
The melting point of the first is higher: 242 to 243 °C for the first, 208 to 210 °C for the second.
